# Calls of active or inactive are those of the source. The calls are words filed in the database; no cut-off is given here.
# Key:
# HMEC-1 = test: Cytoprotective activity against 4HNE-induced cytotoxicity in HMEC1 cells at 25 uM by MTT assay; assay type: functional, cell-based; conditions: Homo sapiens
# [1] = Inhibition against copper-induced LDL oxidation in cell-free system at 10 uM after 3 hrs by TBARS assay; parameters: scale not given: the % may be the effect or the level left
# [2] = Inhibition against UV-induced LDL oxidation in cell-free system at 10 uM after 2 hrs by TBARS assay; parameters: scale not given: the % may be the effect or the level left
# [3] = Cytotoxicity against HMEC1 cells after 6 hrs by MTT assay; assay type: cell-based; conditions: human, hmec-1, 6 h
# [4] = Antioxidant activity assessed as trolox equivalents of ABTS radical scavenging activity by TEAC assay; assay type: functional
# [5] = Inhibition of cell-mediated LDL oxidation in HMEC1 cells at 10 uM after 6 hrs by TBARS assay; parameters: scale not given: the % may be the effect or the level left
# [6] = Antioxidant activity against superoxide radical generation in HMEC1 cells; assay type: functional, Homo sapiens, HMEC-1
# [7] = system: Radical scavenging activity; test: Antioxidant activity assessed as DPPH radical scavenging activity after; assay type: functional
SMILES,Activity (HMEC-1),Activity [1] [%],Activity [2] [%],Activity [3] [%],Activity [4],Activity [5] [%],Activity [6] [%],IC50 [7] [µM]
COc1cc(C(=O)O)cc(OC)c1O,inactive,–,–,–,–,–,–,–
COc1cc(/C=N/NC(=N)N)cc(OC)c1O.Cl,–,6,24,70,0.69,10,36,–
COc1cc(/C=N/Nc2c(Cl)cc(C(F)(F)F)cc2Cl)cc(OC)c1O,–,3,15,74,0.98,4,42,–
COc1cc(/C=N/Nc2ccccc2F)cc(OC)c1O,–,4,16,79,0.78,13,33,–
COc1cc(/C=N/NC(=O)c2ccncc2)cc(OC)c1O,–,85,18,65,1.25,7,22,17
COc1cc(/C=N/NC(=O)OCc2ccccc2)cc(OC)c1O,–,6,18,69,1.11,3,50,–
COc1cc(/C=N/Nc2nc3ccccc3s2)cc(OC)c1O,–,2,17,55,0.89,3,56,–
NNC(=O)c1ccncc1,inactive,–,–,–,–,–,–,–
COc1cc(/C=N/NC(=O)c2cccnc2)cc(OC)c1O,–,77,20,60,1.25,5,44,18
COc1cc(/C=N/NC(=O)c2cc(C)n[nH]2)cc(OC)c1O,–,4,17,69,1.15,3,50,–
Cc1c(C)c2c(c(C)c1O)CCC(C)(C(=O)O)O2 (centres undefined) [TROLOX],–,6,18,57,–,3,5,–
COc1cc(/C=N/Nc2nncc3ccccc23)cc(OC)c1O.Cl,–,5,18,66,0.75,4,30,–
COc1cc(/C=N/Nc2ccc(F)cc2)cc(OC)c1O,–,6,18,58,1.02,5,57,–

# Source: ChEMBL document CHEMBL1177867, “Synthesis and antioxidant activity evaluation of a syringic hydrazones family” (Eur J Med Chem, 2010)
